Measured values: patent publication US12662469B2 (SIRONAX LTD, priority 2018, dated 2026)

tested on: Cell Necrosis; test: Cell necrosis assay / cell viability assay (necrosis inhibitor activity); format: cell-based; settings: necrosis inhibitor activity; EC data for 14-191 extrapolated; read-out: EC50

SMILES | EC50 [µM]
NC(=O)c1ccc(OC2CN(C(=O)N3N=CCC3c3cc(F)cc(F)c3)C2)cc1F (stereo not drawn) [Compound 155] | 0.001 to 1
O=C(N1CC(Cc2ccc3nc[nH]c3c2)C1)N1N=CCC1c1cc(F)cc(F)c1 (stereo not drawn) [Compound 191] | 0.001 to 1
Nc1ccnc(N2CCN(C(=O)N3N=CCC3c3ccccc3)CC2)n1 (stereo not drawn) [Compound 102, (4-(4-aminopyrimidin-2-yl)piperazin-1-yl)(5-phenyl-4,5-dihydro-1H-pyrazol-1-yl)methanone] | 1 to 10
O=C(N1CCN(c2ccncn2)CC1)N1N=CCC1c1ccccc1 (stereo not drawn) [Compound 90, (5-phenyl-4,5-dihydro-1H-pyrazol-1-yl)(4-(pyrimidin-4-yl)piperazin-1-yl)methanone] | 1 to 10
O=C(N1CC(Oc2c(F)cc(F)cc2F)C1)N1N=CCC1c1cc(F)cc(F)c1 (stereo not drawn) [Compound 126, (5-(3,5-difluorophenyl)-4,5-dihydro-1H-pyrazol-1-yl)(3-(2,4,6-trifluorophenoxy)azetidin-1-yl)methanone] | 0.001 to 1
C[C@H]1CN(c2ncc(Cl)cn2)CCN1C(=O)N1N=CCC1c1ccccc1 (stereo partly drawn) [Compound 113A, ((S)-4-(5-chloropyrimidin-2-yl)-2-methylpiperazin-1-yl)(5-phenyl-4,5-dihydro-1H-pyrazol-1-yl)methanone] | 0.001 to 1
O=C(N1CCN(c2cnccn2)CC1)N1N=CCC1c1ccccc1 (stereo not drawn) [Compound 86, (5-phenyl-4,5-dihydro-1H-pyrazol-1-yl)(4-(pyrazin-2-yl)piperazin-1-yl)methanone] | 0.001 to 1
C[C@H]1CN(c2ccc(F)cn2)CCN1C(=O)N1N=CCC1c1ccccc1 (stereo partly drawn) [Compound 115A, ((S)-4-(5-fluoropyridin-2-yl)-2-methylpiperazin-1-yl)(5-phenyl-4,5-dihydro-1H-pyrazol-1-yl)methanone] | 0.001 to 1
Cn1c(OC2CN(C(=O)N3N=CCC3c3cc(F)cc(F)c3)C2)cccc1=O (stereo not drawn) [Compound 188] | 0.001 to 1
O=C(N1CC(Oc2ccc(F)cc2)C1)N1N=CCC1c1ccccc1 (stereo not drawn) [Compound 62, (3-(4-fluorophenoxy)azetidin-1-yl)(5-phenyl-4,5-dihydro-1H-pyrazol-1-yl)methanone] | 0.001 to 1
O=C(N1CC(Oc2ccc(F)cc2F)C1)N1N=CCC1c1ccccc1 (stereo not drawn) [Compound 63, (3-(2,4-difluorophenoxy)azetidin-1-yl)(5-phenyl-4,5-dihydro-1H-pyrazol-1-yl)methanone] | 0.001 to 1
CNC(=O)c1cc(OC2CN(C(=O)N3N=CCC3c3cc(F)cc(F)c3)C2)ccc1F (stereo not drawn) [Compound 162] | 0.001 to 1
O=C(NC1CCN(c2ccc(F)cn2)C1)N1N=CCC1c1ccccc1 (stereo not drawn) [Compound 23, N-(1-(5-fluoropyridin-2-yl)pyrrolidin-3-yl)-5-phenyl-4,5-dihydro-1H-pyrazole-1-carboxamide] | 0.001 to 1

same assay, conditions: necrosis inhibitor activity; compounds outside 14-191; read-out: EC50

SMILES | EC50 [µM]
CC1Oc2ccc(OC3CN(C(=O)N4N=CC[C@H]4c4ccccc4)C3)cc2NC1=O (stereo partly drawn) [Compound 355, 2-methyl-6-((1-((S)-5-phenyl-4,5-dihydro-1H-pyrazole-1-carbonyl)azetidin-3-yl)oxy)-2H-benzo[b][1,4]oxazin-3(4H)-one] | 0.001 to 1
NC(=O)c1ccc(F)cc1C=C1CN(C(=O)N2N=CC[C@H]2c2cc(F)cc(F)c2)C1 [Compound 320, (S)-2-((1-(5-(3,5-difluorophenyl)-4,5-dihydro-1H-pyrazole-1-carbonyl)azetidin-3-ylidene)methyl)-4-fluorobenzamide] | 0.001 to 1
N#Cc1cnc2ccc(O[C@@H]3CCN(C(=O)N4N=CC[C@H]4c4cc(F)cc(F)c4)C3)nn12 [Compound 240, 6-(((R)-1-((S)-5-(3,5-difluorophenyl)-4,5-dihydro-1H-pyrazole-1-carbonyl)pyrrolidin-3-yl)oxy)imidazo[1,2-b]pyridazine-3-carbonitrile] | 0.001 to 1
N#Cc1cc(F)cc([C@@H]2CC=NN2C(=O)N2CC(=Cc3cc4[nH]nc(F)c4cc3F)C2)c1 [Compound 297, (S)-3-(1-(3-((3,5-difluoro-1H-indazol-6-yl)methylene)azetidine-1-carbonyl)-4,5-dihydro-1H-pyrazol-5-yl)-5-fluorobenzonitrile] | 0.001 to 1
CC(C)C(=O)Nc1nc(N2CCN(C(=O)N3N=CC[C@H]3c3cc(F)cc(F)c3)CC2)ncc1F [Compound 292, (S)—N-(2-(4-(5-(3,5-difluorophenyl)-4,5-dihydro-1H-pyrazole-1-carbonyl)piperazin-1-yl)-5-fluoropyrimidin-4-yl)isobutyramide] | 0.001 to 1
N#Cc1cccc(C2CC=NN2C(=O)N2CC(Oc3cc4[nH]nc(F)c4cc3F)C2)c1 (stereo not drawn) [Compound 380, 3-(1-(3-((3,5-difluoro-1H-indazol-6-yl)oxy)azetidine-1-carbonyl)-4,5-dihydro-1H-pyrazol-5-yl)benzonitrile] | 0.001 to 1
NC(=O)c1cc(Cl)nc(O[C@H]2CCN(C(=O)N3N=CC[C@H]3c3cc(F)cc(F)c3)C2)c1 [Compound 331, 2-chloro-6-(((S)-1-((S)-5-(3,5-difluorophenyl)-4,5-dihydro-1H-pyrazole-1-carbonyl)pyrrolidin-3-yl)oxy)isonicotinamide] | 0.001 to 1
O=C(N1CC(Oc2cc3[nH]nc(F)c3cc2F)C1)N1N=CC[C@H]1c1cc(F)cc(F)c1 [Compound 376, (S)-(3-((3,5-difluoro-1H-indazol-6-yl)oxy)azetidin-1-yl)(5-(3,5-difluorophenyl)-4,5-dihydro-1H-pyrazol-1-yl)methanone] | 0.001 to 1
NC(=O)c1ccnc(O[C@@H]2CCN(C(=O)N3N=CC[C@H]3c3cc(F)cc(F)c3)C2)n1 [Compound 332, 2-(((R)-1-((S)-5-(3,5-difluorophenyl)-4,5-dihydro-1H-pyrazole-1-carbonyl)pyrrolidin-3-yl)oxy)pyrimidine-4-carboxamide] | 0.001 to 1
COc1nc(N2CCN(C(=O)N3N=CC[C@H]3c3cc(F)cc(F)c3)CC2)ncc1F [Compound 271, (S)-(5-(3,5-difluorophenyl)-4,5-dihydro-1H-pyrazol-1-yl)(4-(5-fluoro-4-methoxypyrimidin-2-yl)piperazin-1-yl)methanone] | 0.001 to 1
O=C(N1CC(=Cc2cc(NCCN3CCOCC3)ccc2F)C1)N1N=CC[C@H]1c1cc(F)cc(F)c1 [Compound 371, (S)-(5-(3,5-difluorophenyl)-4,5-dihydro-1H-pyrazol-1-yl)(3-(2-fluoro-5-((2-morpholinoethyl)amino)benzylidene)azetidin-1-yl)methanone] | 0.001 to 1
N#Cc1nccc(O[C@@H]2CCN(C(=O)N3N=CC[C@H]3c3cc(F)cc(F)c3)C2)n1 [Compound 362, 4-(((R)-1-((S)-5-(3,5-difluorophenyl)-4,5-dihydro-1H-pyrazole-1-carbonyl)pyrrolidin-3-yl)oxy)pyrimidine-2-carbonitrile] | 0.001 to 1
O=C(N1CC(Oc2ccc(F)cc2F)C1)N1N=CCC1c1cncc(F)c1 (stereo not drawn) [Compound 213, (3-(2,4-difluorophenoxy)114zetidine-1-yl)(5-(5-fluoropyridin-3-yl)-4,5-dihydro-1H-pyrazol-1-yl)methanone] | 0.001 to 1
CC1Oc2ccc(OC3CN(C(=O)N4N=CC[C@H]4c4cc(F)cc(F)c4)C3)cc2NC1=O (stereo partly drawn) [Compound 349, 6-((1-((S)-5-(3,5-difluorophenyl)-4,5-dihydro-1H-pyrazole-1-carbonyl)azetidin-3-yl)oxy)-2-methyl-2H-benzo[b][1,4]oxazin-3(4H)-one] | 0.001 to 1
